Laboratory results as given in patent publication US10183949B2, “Pyrimidinone derivative having autotaxin-inhibitory activity” (The University of Tokyo, priority 2014, dated 2019).

biological target: T1, Human autotaxin enzyme (Homo sapiens, UniProt Q13822); experiment: Evaluation of autotaxin inhibitor, 18:0 Lyso PC / choline assay (Test Example 2); assay type: biochemical; conditions: human autotaxin enzyme, 18:0 Lyso PC substrate, choline assay, room temperature 2 hours; read-out: Inhibitor activity (IC50)
T1 construct: purchased R&D System
Method: Solution B containing 100 mM Tris-HCl buffer (pH7.5), 150 mM NaCl, 5 mM MgCl2, and 0.05% Triton X-100 was prepared. Human autotaxin enzyme (purchased from R&D System) was diluted with Solution B, and 2.5 μl of which was added to a solution of test compound in DMSO. Furthermore, 2.5 μl of 200 μM 18:0 Lyso PC (purchased from Avanti Polar Lipids) in Solution B was added and allowed to react at room temperature for 2 hours. After completion of the reaction, 15 μl of the coline assay reagent. (100 mM Tris-HCl buffer (pH7.5), 5 mM. MgCl2, 77 μg/ml coline oxidase, 10 μg/ml peroxydase, 25μM 10-acetyl-3,7-dihydroxyphenoxazine, and excess autotaxin inhibitor) was added and allowed to react at room temperature for 20 minutes. The fluorescent dye Resorufin, which was produced by the reaction, was detected. The fluorescence was detected using ViewLux
(PerkinElmer, Inc.) with a excitation wavelength of 531 nm and a fluorescence wavelength of 598 nm.
The percent inhibition of the test compound was calculated by assuming the sample with no test compound as 0% inhibition and the sample with no enzyme as 100% inhibition, and the percent inhibitions at different concentrations of the test compound were plotted to obtain a concentration-dependent curve.

Row | SMILES | IC50 [nM]
1 | CCCCCn1c(-c2ccc(Cl)cc2)cc(=O)n(C)c1=N [Compound I-0001] | ≥ 1000
2 | CCCCCc1nc(-c2ccc(Cl)cc2)[nH]c(=O)c1Cc1ccc(C(=O)O)cc1 [Compound I-0002] | 100 to 1000
3 | CCCCCc1nc(-c2ccc(Cl)cc2)[nH]c(=O)c1Cc1cccc(C(=O)O)c1 [Compound I-0003] | 100 to 1000
4 | CCCCCNc1nc(-c2ccc(C(F)(F)F)cc2)cc(=O)n1Cc1ccccc1 [Compound I-0004] | ≥ 1000
5 | CCCCCc1nc(-c2ccc(Cl)cc2)cc(=O)n1C [Compound I-0005] | ≥ 1000
6 | CCCCCc1nc(-c2ccc(Cl)cc2)cc(=O)n1CC [Compound I-0006] | ≥ 1000
7 | CCCCCc1nc(-c2ccc(Cl)cc2)cc(=O)n1Cc1ccccc1 [Compound I-0007] | ≥ 1000
8 | CCCCCc1nc(-c2ccc(Cl)cc2)cc(=O)n1Cc1ccc(C(=O)O)cc1 [Compound I-0008] | 100 to 1000
9 | CCCCCNc1nc(-c2ccc(C(F)(F)F)cc2)cc(=O)n1Cc1ccc(C(=O)O)cc1 [Compound I-0010] | 100 to 1000
10 | CCCCCNc1nc(-c2ccc(C(F)(F)F)cc2)cc(=O)n1Cc1cccc(C(=O)OC(C)(C)C)c1 [Compound I-0011] | ≥ 1000
11 | CCCCCNc1nc(-c2ccc(C(F)(F)F)cc2)cc(=O)n1Cc1cccc(C(=O)NCC(N)=O)c1 [Compound I-0013] | 100 to 1000
12 | CCCCCNc1nc(-c2ccc(C(F)(F)F)cc2)cc(=O)n1Cc1cccc(C(=O)NC(Cc2ccccc2)C(=O)O)c1 (centres unmarked) [Compound I-0014] | 100 to 1000
13 | CCCCCNc1nc(-c2ccc(C(F)(F)F)cc2)cc(=O)n1Cc1cccc(C(=O)NCCC(=O)O)c1 [Compound I-0016] | 100 to 1000
14 | CCCCCNc1nc(-c2ccc(C(F)(F)F)cc2)cc(=O)n1Cc1ccc(C(=O)NC(Cc2ccccc2)C(=O)O)cc1 (centres unmarked) [Compound I-0017] | 100 to 1000
15 | CCCCCNc1nc(-c2ccc(C(F)(F)F)cc2)cc(=O)n1Cc1ccc(C(=O)NCC(=O)O)cc1 [Compound I-0018] | 100 to 1000
16 | CCCCCNc1nc(-c2ccc(C(F)(F)F)cc2)cc(=O)n1Cc1ccc(C(=O)NCC(N)=O)cc1 [Compound I-0019] | ≥ 1000

Row | SMILES | IC50 [nM]
17 | CCCCCNc1nc(-c2ccc(C#N)cc2)cc(=O)n1Cc1cccc(C(=O)OC(C)(C)C)c1 [Compound I-0021] | 100 to 1000
18 | CCCCCc1nc(-c2ccc(Cl)cc2)cc(=O)n1CC(=O)NCCO [Compound I-0027] | 100 to 1000
19 | CCCCCc1nc(-c2ccc(Cl)cc2)cc(=O)n1CC(=O)N(C)CCO [Compound I-0029] | 100 to 1000
20 | CCCCCc1nc(-c2ccc(Cl)cc2)cc(=O)n1CC(=O)NCCCO [Compound I-0030] | 100 to 1000
21 | CCCCCc1nc(-c2ccc(Cl)cc2)cc(=O)n1CC(=O)NCCC(N)=O [Compound I-0031] | 100 to 1000
22 | CCCCCc1nc(-c2ccc(Cl)cc2)cc(=O)n1CC(=O)NCCN(C)C [Compound I-0032] | 100 to 1000
23 | CCCCCc1nc(-c2ccc(Cl)cc2)cc(=O)n1CC(=O)NCc1ccccc1 [Compound I-0034] | 100 to 1000
24 | CCCCCc1nc(-c2ccc(Cl)cc2)cc(=O)n1CC(=O)N(C)Cc1ccccc1 [Compound I-0036] | 100 to 1000
25 | CCCCCc1nc(-c2ccc(Cl)cc2)cc(=O)n1CC(=O)NCC1CCC(=O)NC1 (centres unmarked) [Compound I-0037] | 100 to 1000
26 | CCCCCc1nc(-c2ccc(Cl)cc2)cc(=O)n1CC(=O)NCc1cccc(=O)n1C [Compound I-0038] | 100 to 1000
27 | CCCCCc1nc(-c2ccc(Cl)cc2)cc(=O)n1CC(=O)N1CCCC(c2ccc(C(=O)O)cc2)C1 (centres unmarked) [Compound I-0047] | 100 to 1000
28 | CCCCCc1nc(-c2ccc(Cl)cc2)cc(=O)n1CC(=O)N1CCCCC1C(=O)O (centres unmarked) [Compound I-0049] | 100 to 1000
29 | CCCCCc1nc(-c2ccc(Cl)cc2)cc(=O)n1CC(=O)NC(C(=O)O)C(C)C (centres unmarked) [Compound I-0050] | 100 to 1000
30 | CCCCCc1nc(-c2ccc(Cl)cc2)cc(=O)n1CC(=O)NCc1ccccc1C(=O)O [Compound I-0054] | 100 to 1000
31 | CCCCCc1nc(-c2ccc(Cl)cc2)cc(=O)n1CC(=O)NC1(C(=O)O)CCOCC1 [Compound I-0058] | ≥ 1000

Continued, values first:

Row | IC50 [nM] | SMILES
32 | 10 to 100 | CCCCCc1nc(-c2ccc(Cl)cc2)cc(=O)n1Cc1cccc(C(=O)O)c1 [Compound I-0009]
33 | 10 to 100 | CCCCCNc1nc(-c2ccc(C(F)(F)F)cc2)cc(=O)n1Cc1cccc(C(=O)O)c1 [Compound I-0012]
34 | 10 to 100 | CCCCCNc1nc(-c2ccc(C(F)(F)F)cc2)cc(=O)n1Cc1cccc(C(=O)NCC(=O)O)c1 [Compound I-0015]
35 | 10 to 100 | CCCCCNc1nc(-c2ccc(C#N)cc2)cc(=O)n1Cc1cccc(C(=O)O)c1 [Compound I-0022]
36 | 10 to 100 | CCCCCc1nc(-c2ccc(Cl)cc2)cc(=O)n1CC(=O)OC [Compound I-0023]
37 | < 10 | CCCCCc1nc(-c2ccc(Cl)cc2)cc(=O)n1CC(=O)NC(Cc1ccccc1)C(=O)O (centres unmarked) [Compound I-0024]
38 | 10 to 100 | CCCCCc1nc(-c2ccc(Cl)cc2)cc(=O)n1CC(=O)NC(C)C [Compound I-0026]
39 | 10 to 100 | CCCCCc1nc(-c2ccc(Cl)cc2)cc(=O)n1CC(=O)NC1COC1 [Compound I-0028]
40 | 10 to 100 | CCCCCc1nc(-c2ccc(Cl)cc2)cc(=O)n1CC(=O)NCC1(CO)CC1 [Compound I-0033]
41 | 10 to 100 | CCCCCc1nc(-c2ccc(Cl)cc2)cc(=O)n1CC(=O)NCC1(CO)COC1 [Compound I-0035]
42 | 10 to 100 | CCCCCc1nc(-c2ccc(Cl)cc2)cc(=O)n1CC(=O)NC(C)C(=O)O (centres unmarked) [Compound I-0039]
43 | 10 to 100 | CCCCCc1nc(-c2ccc(Cl)cc2)cc(=O)n1CC(=O)NCCC(=O)O [Compound I-0040]
44 | 10 to 100 | CCCCCc1nc(-c2ccc(Cl)cc2)cc(=O)n1CC(=O)NCc1ccc(C(=O)O)cc1 [Compound I-0041]
45 | < 10 | CCCCCc1nc(-c2ccc(Cl)cc2)cc(=O)n1CC(=O)N1CCC(C(=O)O)CC1 [Compound I-0042]
46 | 10 to 100 | CCCCCc1nc(-c2ccc(Cl)cc2)cc(=O)n1CC(=O)NCCCCCC(=O)O [Compound I-0043]
47 | < 10 | CCCCCc1nc(-c2ccc(Cl)cc2)cc(=O)n1CC(=O)NCCCC(=O)O [Compound I-0044]
48 | < 10 | CCCCCc1nc(-c2ccc(Cl)cc2)cc(=O)n1CC(=O)N1CCC(CC(=O)O)CC1 [Compound I-0045]
49 | 10 to 100 | CCCCCc1nc(-c2ccc(Cl)cc2)cc(=O)n1CC(=O)N1CCC(c2ccccc2C(=O)O)CC1 [Compound I-0046]
50 | < 10 | CCCCCc1nc(-c2ccc(Cl)cc2)cc(=O)n1CC(=O)N1CCN(CC(=O)O)CC1 [Compound I-0048]
51 | < 10 | CCCCCc1nc(-c2ccc(Cl)cc2)cc(=O)n1CC(=O)NC(CC)C(=O)O (centres unmarked) [Compound I-0051]
52 | < 10 | CCCCCc1nc(-c2ccc(Cl)cc2)cc(=O)n1CC(=O)NC(CO)C(=O)O (centres unmarked) [Compound I-0052]
53 | 10 to 100 | CCCCCc1nc(-c2ccc(Cl)cc2)cc(=O)n1CC(=O)N1CCC(c2cccc(C(=O)O)c2)CC1 [Compound I-0053]
54 | < 10 | CCCCCc1nc(-c2ccc(Cl)cc2)cc(=O)n1CC(=O)NCC(=O)NCC(=O)O [Compound I-0055]
55 | < 10 | CCCCCc1nc(-c2ccc(Cl)cc2)cc(=O)n1CC(=O)NC(C)(C)C(=O)O [Compound I-0056]
56 | 10 to 100 | CCCCCc1nc(-c2ccc(Cl)cc2)cc(=O)n1CC(=O)NC1(C(=O)O)CCCC1 [Compound I-0057]
